According to patent publication US8637513B2, “Heterocycle phenyl amide T-type calcium channel antagonists” (Merck Sharp & Dohme Corp., priority 2007, dated 2014):

target: T1, T-type channel alpha1I (CaV 3.3) (Homo sapiens, UniProt Q9P0X4); assay: FLIPR Ca2+ Flux Assay; type: cell-based; conditions: alpha1I subtype; read-out: FLIPR alpha1I IP
T1 construct: expressed in transfected cells; host or cells: HEK 293 cells, tetracycline-inducible expression
T1 sequence (Q9P0X4 whole entry): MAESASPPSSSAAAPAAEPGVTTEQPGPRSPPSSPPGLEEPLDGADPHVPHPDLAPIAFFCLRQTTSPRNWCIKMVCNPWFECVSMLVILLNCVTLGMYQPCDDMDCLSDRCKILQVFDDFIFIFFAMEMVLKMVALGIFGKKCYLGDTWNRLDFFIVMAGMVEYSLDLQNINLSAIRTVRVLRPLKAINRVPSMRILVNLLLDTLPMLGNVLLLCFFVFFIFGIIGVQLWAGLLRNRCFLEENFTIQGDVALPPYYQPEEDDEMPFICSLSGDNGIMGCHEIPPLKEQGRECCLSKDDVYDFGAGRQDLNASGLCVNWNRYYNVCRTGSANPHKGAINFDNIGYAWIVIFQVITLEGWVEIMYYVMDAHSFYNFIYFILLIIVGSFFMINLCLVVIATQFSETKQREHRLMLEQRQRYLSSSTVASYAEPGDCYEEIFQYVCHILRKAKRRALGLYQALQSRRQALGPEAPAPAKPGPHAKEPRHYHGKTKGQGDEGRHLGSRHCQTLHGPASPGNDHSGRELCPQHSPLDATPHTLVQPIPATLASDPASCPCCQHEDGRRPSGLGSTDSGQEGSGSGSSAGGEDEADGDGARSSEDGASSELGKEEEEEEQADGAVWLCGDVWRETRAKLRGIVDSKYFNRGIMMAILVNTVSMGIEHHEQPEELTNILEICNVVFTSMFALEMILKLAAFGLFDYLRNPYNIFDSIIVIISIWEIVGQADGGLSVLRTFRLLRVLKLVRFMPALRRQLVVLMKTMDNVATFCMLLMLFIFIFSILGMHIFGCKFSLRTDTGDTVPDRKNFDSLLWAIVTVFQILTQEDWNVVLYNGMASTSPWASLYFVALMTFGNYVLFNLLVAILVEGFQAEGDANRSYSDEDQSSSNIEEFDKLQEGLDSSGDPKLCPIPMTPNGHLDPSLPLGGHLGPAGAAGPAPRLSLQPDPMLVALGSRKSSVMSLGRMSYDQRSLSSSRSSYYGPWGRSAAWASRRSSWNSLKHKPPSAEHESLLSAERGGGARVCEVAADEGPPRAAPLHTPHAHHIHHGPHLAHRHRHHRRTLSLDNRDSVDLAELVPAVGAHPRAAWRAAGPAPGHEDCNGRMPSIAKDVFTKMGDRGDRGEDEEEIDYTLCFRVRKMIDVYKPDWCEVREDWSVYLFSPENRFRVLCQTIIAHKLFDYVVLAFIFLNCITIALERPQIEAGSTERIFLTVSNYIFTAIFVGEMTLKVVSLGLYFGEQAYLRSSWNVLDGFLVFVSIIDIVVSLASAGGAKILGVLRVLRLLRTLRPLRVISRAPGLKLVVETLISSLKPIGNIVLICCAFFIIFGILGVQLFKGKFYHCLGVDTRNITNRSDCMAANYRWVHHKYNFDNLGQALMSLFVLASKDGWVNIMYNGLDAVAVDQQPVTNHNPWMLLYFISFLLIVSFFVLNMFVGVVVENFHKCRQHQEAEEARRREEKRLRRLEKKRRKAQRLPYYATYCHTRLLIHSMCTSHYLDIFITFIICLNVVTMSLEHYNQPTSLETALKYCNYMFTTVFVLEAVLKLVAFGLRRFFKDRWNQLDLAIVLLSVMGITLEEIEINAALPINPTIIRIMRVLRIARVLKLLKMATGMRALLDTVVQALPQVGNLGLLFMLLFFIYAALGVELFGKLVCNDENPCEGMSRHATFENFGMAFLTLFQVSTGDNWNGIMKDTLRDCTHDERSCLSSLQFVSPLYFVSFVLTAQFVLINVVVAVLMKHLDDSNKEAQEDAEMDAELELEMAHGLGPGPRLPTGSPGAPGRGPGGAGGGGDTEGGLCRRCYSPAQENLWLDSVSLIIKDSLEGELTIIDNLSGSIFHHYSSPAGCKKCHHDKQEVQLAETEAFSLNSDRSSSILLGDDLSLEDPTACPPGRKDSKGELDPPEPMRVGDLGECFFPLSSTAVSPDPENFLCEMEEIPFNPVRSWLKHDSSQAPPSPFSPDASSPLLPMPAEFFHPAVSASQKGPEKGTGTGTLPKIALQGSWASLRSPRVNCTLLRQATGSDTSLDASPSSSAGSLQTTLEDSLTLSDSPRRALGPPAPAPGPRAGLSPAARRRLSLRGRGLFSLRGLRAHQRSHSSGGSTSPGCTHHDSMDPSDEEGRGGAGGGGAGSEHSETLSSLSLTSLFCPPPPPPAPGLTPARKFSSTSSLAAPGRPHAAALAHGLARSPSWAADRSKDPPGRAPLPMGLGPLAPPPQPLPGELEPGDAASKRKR

| Structure (SMILES) | IC50 [nM] |
| --- | --- |
| C[C@@H](NC(=O)Cc1ccc(OC2CCOC2)cc1)c1ccc(OCC(F)(F)F)cn1 (stereo partly shown) [Example 8] | 91 |
| C[C@@H](NC(=O)Cc1ccc(-c2nccnc2C2CC2)cc1)c1ccc(OCC(F)(F)F)cn1 [Example 6, 2-[4-(3-Cyclopropylpyrazin-2-yl)phenyl]-N-{(1R)-1-[5-(2,2,2-trifluoroethoxy)pyridin-2-yl]ethyl}acetamide] | 47 |
| CC1=NOC(C)(c2ccc(CC(=O)N[C@H](C)c3ccc(OCC(F)(F)F)cn3)cc2)C1 (stereo partly drawn) [Example 7, 2-[4-(3,5-Dimethyl-4,5-dihydro-isoxazol-5-yl)phenyl]-N-{(1R)-1-[5-(2,2,2-trifluoroethoxy)pyridin-2-yl]ethyl}acetamide] | 41 |
| C[C@@H](NC(=O)Cc1ccc(Oc2nccs2)cc1)c1ccc(OCC(F)(F)F)cn1 [Example 9] | 46 |

Continued, values first:

| IC50 [nM] | Structure (SMILES) |
| --- | --- |
| 73 | C[C@@H](NC(=O)Cc1ccc(-n2nc(C3CC3)c3ccccc32)cc1)c1ccc(OCC(F)(F)F)cn1 [Example 10] |
| 19 | C[C@@H](NC(=O)Cc1ccc(-c2cccc3cncnc23)cc1)c1ccc(OCC(F)(F)F)cn1 [Example 1, 2-(4-Quinazolin-8-ylphenyl)-N-{(1R)-1-[5-(2,2,2-trifluoroethoxy)pyridin-2-yl]ethyl}acetamide] |
| 30 | C[C@@H](NC(=O)Cc1ccc(-c2cnccn2)cc1)c1ccc(OCC(F)(F)F)cn1 [Example 5, 2-(4-Pyrazin-2-ylphenyl)-N-{(1R)-1-[5-(2,2,2-trifluoroethoxy)pyridin-2-yl]ethyl}acetamide] |
| 36 | C[C@@H](NC(=O)Cc1ccc(-c2cc3ccccc3n2C)cc1)c1ccc(OCC(F)(F)F)cn1 [Example 3, 2-[4-(1-Methyl-1H-indol-2-yl)phenyl]-N-{(1R)-1-[5-(2,2,2-trifluoroethoxy)pyridin-2-yl]ethyl}acetamide] |
| 5 | C[C@@H](NC(=O)Cc1ccc(-c2cnn3ncccc23)cc1)c1ccc(OCC(F)(F)F)cn1 [Example 4, 2-(4-Pyrazolo[1,5-b]pyridazin-3-ylphenyl)-N-{(1R)-1-[5-(2,2,2-trifluoroethoxy)pyridin-2-yl]ethyl}acetamide] |
| 24 | Cc1nccnc1-c1ccc(CC(=O)N[C@H](C)c2ccc(OCC(F)(F)F)cn2)cc1 [Example 2, 2-[4-(3-methylpyrazin-2-yl)phenyl]-N-{(1R)-1-[5-(2,2,2-trifluoroethoxy)pyridin-2-yl]ethyl}acetamide] |
